# Assays:
# [1] = tested on: isolated adult cardiomyocytes; assay: Cardiomyocyte contractility and calcium transient, video-based edge-detection system (IonOptix); type: cell-based, Sprague–Dawley rats
# Method: Figure 1 N106 increases SERCA2a’s cellular activity and SUMOylation in adult cardiomyocytes. In-vitro characterization of activators of SERCA2a SUMOylation. Cell-based screening of small molecules identified one promising compound. Adult ventricular cardiomyocytes were isolated from Sprague–Dawley rats and treated with small molecules on dose-dependent manner for 24 h. DMSO-treated cardiomyocytes were used as a negative control. (a) Chemical structure of SERCA2a SUMOylation activator. N106, N-(4-methoxybenzo[d]thiazol-2-yl)-5-(4-methoxyphenyl)-1,3,4-oxadiazol-2-amine. (b-g) The effects of N106 compound in cardiomyocyte contractility and calcium transient. The dose-dependent effects of N106 compound presented on peak shortening, the time to maximal departure velocity, the time to maximal return velocity, calcium ratio, decay time constant (τ) and the time to 90% baseline (t90) fluorescence in cardiomyocytes were assessed using a video-based edge-detection system (IonOptix Inc.). n=25 cardiomyocytes from each three of hearts per condition. (h) The effects of N106 compound on the ATPase activity of SERCA2a. The ATPase activity were measured at 25 °C in 50 mM MOPS, 100 mM KCl, 5 mM MgCl2, 1 mM […] at pCa 5.0 by using a coupled enzyme system consisting of pyruvate kinase and lactate dehydrogenase, and monitoring the oxidation of the reduced form of NADH at […]. The enzyme activity was determined by using same set of cardiomyocytes. (i) The effect of N106 compound for the formation of SUMOylated SERCA2a was determined using the same set of cardiomyocytes. Endogenous SERCA2a SUMOylation was detected by immunoprecipitation with anti-SERCA2a and then western blotting with anti-SUMO-1 antibodies. The experiments shown are representative of three independent experiments with similar results. (j) The effect of N106 compound on global SUMOylation was measured by western blot analysis with an anti-SUMO-1 antibody in the same set of cardiomyocytes. The experiments shown are representative of three independent western blottings. Data are represented as mean±s.e.m. (n=3 mice hearts per each condition). Data are represented as mean±s.e.m. *P≤0.05; **P<0.001 (Student’s t-test) from DMSO control.
# Figure 2 Time-course experiments with N106 in isolated adult cardiomyocytes. (a–f) Adult ventricular cardiomyocytes were isolated from Sprague–Dawley rats and treated with 10 μM of N106 compound over a time course as indicated. The time course of the contractile response to N106 was determined as peak shortening (a), the time to maximal velocity of sarcomere shortening (b) and re-lengthening (c). The time-course changes in calcium kinetic parameters such as calcium transient (d), decay time constant (e) and the time to 90% baseline fluorescence in cardiomyocytes (f) were detected. n=25 cardiomyocytes from each three of hearts per condition. DMSO was used as vehicle control. The time courses of the ATPase activity of SERCA2a (g), level of SUMOylated SERCA2a (h) and level of SUMO-1 conjugates (i) were determined by using the same set of cardiomyocytes (two independent experiments). Data are represented as mean±s.e.m. *P≤0.05; **P<0.001 (Student’s t-test) from DMSO control.
# Ventricular heart muscle cells were isolated from 180∼250 g male Sprague–Dawley rats as described. The hearts were perfused sequentially with low-calcium buffer, enzyme solutions containing collagenases and proteases, and high-potassium solution. Next, the hearts were minced, filtered and resuspended in high-potassium solution. The cardiomyocytes were plated on laminin-coated plates and cultured in medium M199 (Life Technologies, CT, USA) containing proper supplements. […]
# Serca2 KO mice = assay: Invasive P–V loop haemodynamics in cardiac-specific Serca2a knockout mice; type: in vivo
# Method: Figure 5 Lack of effects of N106 on haemodynamic parameters in cardiac-specific Serca2a knockout mice. Systolic and diastolic function was determined in conditional cardiac-specific Serca2a knockout mice by pressure–volume analysis. […] There was no significant change in haemodynamic parameters with N106 treatment after a single dose (1 mg kg^−1) (a-f) and different doses (0.1, 1 and 10 mg kg^−1) (g,h). Data are represented as mean±s.e.m. n=3∼8 mice per each condition. NS, not significant; Student’s t-test.
# One day after echocardiography, we performed in-vivo haemodynamics. The mice were anaesthetized with an intraperitoneal injection mixture of urethane (1 mg g^−1), etomidate (10 μg g^−1) and morphine (1 μg g^−1), and were then intubated via a tracheotomy and mechanically ventilated at 7 μl g^−1 tidal volume and 120 respirations per minute. A small incision was made in the apex and a French Millar cathether connected a high-fidelity pressure transducer (Scisense, London, ON, Canada) inserted into the LV. Haemodynamic recordings were performed after 5∼10 min of stable HR. The rate of pressure rise (+dP/dt) and maximal pressure, the time constant of isovolumic relaxation and HR were recorded and analysed. To determine the relative effects of the admittance and conductance techniques to contractility change induced by N106 compound infusion, whole haemodynamic function was recorded at both baseline and after administration of N106 compound through the external jugular vein. N106 compound was solubilized in 10% DMSO (Sigma-Aldrich), 10% Tween-80 (Sigma-Aldrich) and saline for in-vivo experiments. N106 or vehicle solutions were continuously infused through the external jugular vein at a rate of 50 μl min^−1 for 2 min in each dose. Whole haemodynamic functions of increasing dose of N106 of each mouse were recorded for ∼4 h. Each dose of N106 solution was infused after back to baseline of heart function.
# [2] = screen of eight compounds, 10 μM, 24 h
# [3] = Serca2a knockout mice, 1 mg kg^−1
smiles,measurement,setting,value
"COc1ccc(-c2nnc(Nc3nc4c(OC)cccc4s3)o2)cc1 [Compound N106, N-(4-methoxybenzo[d]thiazol-2-yl)-5-(4-methoxyphenyl)-1,3,4-oxadiazol-2-amine]",inotropic effect in isolated cardiomyocytes,"[1]; 10 μM, 24 h",positive inotropic effects
same,positive effect on cardiomyocytes contractility,[1]; at over 50 μM concentration,no longer observed
same,Calcium-transient amplitude,"[1]; dose–response, 10 nM, 24 h",0.18±0.01
same,"exponential decay of time constant, τ","[1]; dose–response, 10 nM, 24 h",0.20 ± 0.01 s
same,maximal velocities of cell contraction,"[1]; dose–response, 10 nM, 24 h",−1.93±0.08 μm s^−1
same,maximal velocities of cell relaxation,"[1]; dose–response, 10 nM, 24 h",1.76±0.08 μm s^−1
same,peak shortening,"[1]; dose–response, 10 nM, 24 h",7.63±0.48%
same,"time for 90% decay, t90","[1]; dose–response, 10 nM, 24 h",0.47 ± 0.02 s
same,Calcium-transient amplitude,"[1]; dose–response, 100 nM, 24 h",0.21±0.01
same,"exponential decay of time constant, τ","[1]; dose–response, 100 nM, 24 h",0.20 ± 0.01 s
same,maximal velocities of cell contraction,"[1]; dose–response, 100 nM, 24 h",−2.17±0.10 μm s^−1
same,maximal velocities of cell relaxation,"[1]; dose–response, 100 nM, 24 h",1.98±0.12 μm s^−1
same,peak shortening,"[1]; dose–response, 100 nM, 24 h",8.36±0.56%
same,"time for 90% decay, t90","[1]; dose–response, 100 nM, 24 h",0.44 ± 0.02 s
same,Calcium-transient amplitude,"[1]; dose–response, 10 μM, 24 h",0.19±0.00
same,"exponential decay of time constant, τ","[1]; dose–response, 10 μM, 24 h",0.16 ± 0.008 s
same,maximal velocities of cell contraction,"[1]; dose–response, 10 μM, 24 h",−2.30±0.19 μm s^−1
same,maximal velocities of cell relaxation,"[1]; dose–response, 10 μM, 24 h",1.99±0.15 μm s^−1
same,peak shortening,"[1]; dose–response, 10 μM, 24 h",9.10±0.52%
same,"time for 90% decay, t90","[1]; dose–response, 10 μM, 24 h",0.35 ± 0.006 s
same,peak shortening,[1]; [2],12.03±0.80%
same,transient calcium decay τ,[1]; [2],0.18 ± 0.02 s
same,calcium amplitude (ratio 360/380 nm),"[1]; time course, 10 μM, 10 min",0.19±0.01
same,maximal velocities of cell contraction,"[1]; time course, 10 μM, 10 min",−1.97±0.04 μm s^−1
same,maximal velocities of cell relaxation,"[1]; time course, 10 μM, 10 min",1.12±0.11 μm s^−1
same,peak shortening,"[1]; time course, 10 μM, 10 min",9.65±0.27%
same,t90,"[1]; time course, 10 μM, 10 min",0.40 ± 0.03 s
same,τ,"[1]; time course, 10 μM, 10 min",0.17 ± 0.02 s
same,maximal velocities of cell contraction,"[1]; time course, 10 μM, 1 h",−1.92±0.09 μm s^−1
same,maximal velocities of cell relaxation,"[1]; time course, 10 μM, 1 h",1.67±0.15 μm s^−1
same,peak shortening,"[1]; time course, 10 μM, 1 h",8.60±0.23%
same,t90,"[1]; time course, 10 μM, 1 h",0.35 ± 0.01 s
same,τ,"[1]; time course, 10 μM, 1 h",0.14 ± 0.02 s
same,calcium amplitude (ratio 360/380 nm),"[1]; time course, 10 μM, 1 h (P=0.17)",0.17±0.01
same,calcium amplitude (ratio 360/380 nm),"[1]; time course, 10 μM, 24 h",0.18±0.008
same,maximal velocities of cell contraction,"[1]; time course, 10 μM, 24 h",−2.3±0.19 μm s^−1
same,maximal velocities of cell relaxation,"[1]; time course, 10 μM, 24 h",1.99±0.15 μm s^−1
same,peak shortening,"[1]; time course, 10 μM, 24 h",8.90±0.38%
same,t90,"[1]; time course, 10 μM, 24 h",0.35 ± 0.006 s
same,τ,"[1]; time course, 10 μM, 24 h",0.16 ± 0.008 s
same,improvements in haemodynamic parameters,"Serca2 KO mice; Serca2 KO, 1 mg kg^−1 and 0.1, 1 and 10 mg kg^−1",did not induce any improvements
same,+dP/dtmax,Serca2 KO mice; [3],2917.8±412.9 mm Hg s^−1
same,HR,Serca2 KO mice; [3],311.2±16.1 bpm
same,Pmax,Serca2 KO mice; [3],75.0±4.4 mm Hg
same,τ,Serca2 KO mice; [3],11.2 ± 1.0 ms
same,ESPVR slope,"Serca2 KO mice; Serca2a knockout mice, 1 mg kg^−1 via jugular vein",3.9±0.7 mm Hg μl^−1

# Source: paper PMC4467461, “Small-molecule activation of SERCA2a SUMOylation for the treatment of heart failure” (Nature Communications, 2015)
